Source: publication PMC7414129, “Visualizing the enzyme mechanism of mevalonate diphosphate decarboxylase” (Nature Communications, 2020)

How the values were obtained:
[1] = target: T1, MDDEF (mevalonate diphosphate decarboxylase from Enterococcus faecalis) (Enterococcus faecalis, UniProt Q9FD68, K187A); experiment: biochemical
T1 construct: gene mvaD

[2] = target: T2, MDDEF (mevalonate diphosphate decarboxylase from Enterococcus faecalis) (Enterococcus faecalis, UniProt Q9FD68); experiment: X-ray crystal structure (soaked); assay type: binding; settings: 1.7 Å; binary complex; pH 4.6
T2 construct: gene mvaD; full-length, recombinant in E. coli BL21(DE3); N-terminal His tag removed by TEV protease (told for K187A, wild type purified similarly); residues 1-326 modelled
T2 sequence (Q9FD68 1-331): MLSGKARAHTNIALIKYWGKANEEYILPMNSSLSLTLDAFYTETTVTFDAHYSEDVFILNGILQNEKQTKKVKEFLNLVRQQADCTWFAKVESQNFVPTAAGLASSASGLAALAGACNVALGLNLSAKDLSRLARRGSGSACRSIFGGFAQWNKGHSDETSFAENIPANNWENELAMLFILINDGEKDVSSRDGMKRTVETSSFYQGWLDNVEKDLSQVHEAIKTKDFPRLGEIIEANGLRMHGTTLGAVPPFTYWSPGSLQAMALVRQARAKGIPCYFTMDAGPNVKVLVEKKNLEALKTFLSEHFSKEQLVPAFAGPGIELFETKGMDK

purified protein [3] = substrate: C[C@@](O)(CCOP(=O)(O)OP(=O)(O)O)CC(=O)O; experiment: purified protein; settings: cobalt substituting for magnesium, co-substrate ATP, 100 mM HEPES pH 7.0, 100 mM KCl, 30 °C (standard assay)
purified protein [4] = substrate: Nc1ncnc2c1ncn2[C@@H]1O[C@H](COP(=O)(O)OP(=O)(O)OP(=O)(O)O)[C@@H](O)[C@H]1O; experiment: purified protein; settings: cobalt substituting for magnesium, co-substrate MVAPP, 100 mM HEPES pH 7.0, 100 mM KCl, 30 °C (standard assay)

Nc1ncnc2c1ncn2[C@@H]1O[C@H](CO[P@](=O)(O)O[P@](=O)(O)O[P@@](=O)(O)S)[C@@H](O)[C@H]1O [ATPγS]
Kd [1]: 182 ± 36 µM

C[C@@](O)(CCOP(=O)(O)OP(=O)(O)O)CC(=O)O [MVAPP, mevalonate-5-diphosphate]
X-ray crystal structure (soaked) [2]: MDDEF-MVAPP: 6E2T

B1: MDDEF (mevalonate diphosphate decarboxylase from Enterococcus faecalis) (Enterococcus faecalis) (protein)
chain: MLSGKARAHTNIALIKYWGKANEEYILPMNSSLSLTLDAFYTETTVTFDAHYSEDVFILNGILQNEKQTKKVKEFLNLVRQQADCTWFAKVESQNFVPTAAGLASSASGLAALAGACNVALGLNLSAKDLSRLARRGSGSACRSIFGGFAQWNKGHSDETSFAENIPANNWENELAMLFILINDGEKDVSSRDGMKRTVETSSFYQGWLDNVEKDLSQVHEAIKTKDFPRLGEIIEANGLRMHGTTLGAVPPFTYWSPGSLQAMALVRQARAKGIPCYFTMDAGPNVKVLVEKKNLEALKTFLSEHFSKEQLVPAFAGPGIELFETKGMDK
Km (purified protein [3]): 39.3 ± 4.0 µM
Km (purified protein [4]): 188 ± 13 µM
